Consider 98 compounds from ChEMBL document CHEMBL3507680, “University of Dundee, Gates Library screen for HepG2 cell viability”.

This data set is described as follows: Human HepG2 cell viability assay in 384 well format. It is filed as toxicity, cell-based. Details: dose 125 nL, time 70.5 hour; cytotoxicity at 70.5 h: concentration not given beside the values. To be noted: HepG2 cells, read-out: Inhibition.
Turning to `CC(C)N1[C@H](Cn2cncn2)C[C@@H]2CN(Cc3ccsc3)CC[C@@H]21`, the cytotoxicity at 70.5 h is -2.74%.

`CCc1nnc2n1CC(CNCc1nnc(C(C)(C)C)o1)CC2` (stereo not drawn): the cytotoxicity at 70.5 h is -6.78%.

Regarding `O=C(C1CC1)N1CCN(Cc2coc(-c3ccc(Cl)cc3)n2)CC1`, the cytotoxicity at 70.5 h is 12.1%.

For `CC(C)OCCC1CCCCN1S(N)(=O)=O` (stereo not drawn), the cytotoxicity at 70.5 h amounted to 10.9%.

Consider `O=C(c1cnc(NCCC2CCCO2)c(Cl)c1)N1CCCCC1` (stereo not drawn), for which the cytotoxicity at 70.5 h was -10%.

With `CCN1CCCC1CN(CCN(C)C)S(=O)(=O)c1cccc(C#N)c1` (stereo not drawn), the cytotoxicity at 70.5 h was -1.36%.

With `Cc1cc(Cn2cncc(Br)c2=O)on1`, the cytotoxicity at 70.5 h came to 5.25%.

As for `Cn1c(CN2CCN(CC3CC3)CC2)nnc1C1CCC1`, the cytotoxicity at 70.5 h turned out to be 20.3%.

On to `CC(C)(O)CN1CCN(C(=O)c2cccc3cccnc23)CC1`, for which the cytotoxicity at 70.5 h is -2.87%.

As for `Cn1ccnc1CN1CCN(CC(O)c2ccc(F)c(F)c2)CC1` (stereo not drawn), the cytotoxicity at 70.5 h was found to be 13.5%.

In the case of `COCCN1CCOCC12CCN(C(=O)c1ccoc1)CC2`, the cytotoxicity at 70.5 h is -4.83%.

`CCN(CC)S(=O)(=O)N1CCCC1c1cccc(Nc2ncc(C)s2)n1` (stereo not drawn): the cytotoxicity at 70.5 h was -11.3%.

In the case of `C1CCC(CNC2CCCN(Cc3noc(C4CC4)n3)C2)C1` (stereo not drawn), the cytotoxicity at 70.5 h was -10.4%.

As for `O=C(NCC1CC1)C1CCC2(CCN(C(=O)c3cccs3)CC2)O1` (stereo not drawn), the cytotoxicity at 70.5 h was -15.2%.

Turning to `CCc1noc(C2CCN(C(=O)CCn3nc(C)cc3C)CC2)n1`, the cytotoxicity at 70.5 h is -12.9%.

On to `CC(=O)NCC1CCN(C(=O)NCCOc2ccc3c(c2)CCC3)CC1`, for which the cytotoxicity at 70.5 h was -11.5%.

On to `COc1nc2ccccc2cc1CN1CCCC(CNC(C)=O)C1` (stereo not drawn), for which the cytotoxicity at 70.5 h is -4.14%.

For the compound `CC(=O)N1CCc2nc(C3CCN(C(=O)c4ccccc4)C3)ncc2C1` (stereo not drawn), the cytotoxicity at 70.5 h worked out at 0.561%.

For `COC(=O)CC(NC(=O)c1ccccc1OC)c1cccs1` (stereo not drawn), the cytotoxicity at 70.5 h was found to be 5.97%.

Consider `COc1ccnc(N2CCN(C(=O)CCc3nccs3)CC2)n1`, for which the cytotoxicity at 70.5 h is -10.9%.

As to `Cc1nc(C)n(C2CCCN(C(=O)c3cccnc3NC(C)C)C2)n1` (stereo not drawn), the cytotoxicity at 70.5 h is -9.03%.

With `CCNC(=O)[C@@H]1C[C@@H](NC(=O)c2ccsc2)CN1CCCSC`, the cytotoxicity at 70.5 h is -3.62%.

On to `CC1CN(CCOc2ccccc2C#N)CCN1Cc1nccn1C` (stereo not drawn), for which the cytotoxicity at 70.5 h is -12.6%.

For `Cc1ccc(C)c(OCCNC(=O)C2CCOC2)c1` (stereo not drawn), the cytotoxicity at 70.5 h was -1.02%.

With `CCOCC(O)CN1CCN(C(=O)Cc2ccc3c(c2)CCC3)CC1` (stereo not drawn), the cytotoxicity at 70.5 h stood at 53.8%.

For `COC(=O)C(NC(=O)C1CC1)c1cc(F)ccc1F` (stereo not drawn), the cytotoxicity at 70.5 h is -0.233%.

Regarding `CNC(=O)c1cc2c(nc1NCC(C)C)CCN(S(=O)(=O)N(C)C)CC2`, the cytotoxicity at 70.5 h was -5.52%.

For the compound `O=C(c1coc(CN2CCN(c3ccccc3F)CC2)n1)N1CC=CC1`, the cytotoxicity at 70.5 h came to 15.2%.

`O=C(Cn1cc(C(=O)O)ccc1=O)NCc1ccc(F)cc1Cl`: the cytotoxicity at 70.5 h worked out at 5.89%.

As to `CS(=O)(=O)NC(=O)c1nnn(-c2cccc(F)c2)c1C1CC1`, the cytotoxicity at 70.5 h was -7.64%.

On to `CC(C)n1nc(CN(C)C)c2c1CN(C(=O)CC1CC1)CC2`, for which the cytotoxicity at 70.5 h was -4.55%.

In the case of `O=C(CN1CCCC1Cn1cncn1)NCCC1=CCCCC1` (stereo not drawn), the cytotoxicity at 70.5 h was determined as 1.2%.

Turning to `COc1ccc(C(=O)Nc2n[nH]c(C3CCCO3)n2)cc1` (stereo not drawn), the cytotoxicity at 70.5 h amounted to 26.5%.

Turning to `Cc1ccccc1-n1ccc2nc(N3CCCC3)ncc2c1=O`, the cytotoxicity at 70.5 h is -13.6%.

As to `CC(C)CC(NCc1ccsc1)c1ccccn1` (stereo not drawn), the cytotoxicity at 70.5 h stood at 22.4%.

For the compound `CSCCC(C)(O)CNS(=O)(=O)Cc1cccc(C)c1` (stereo not drawn), the cytotoxicity at 70.5 h was -16.9%.

With `CNc1cncc(C2CCCN2C(=O)c2ccc3c(c2)OCCO3)n1` (stereo not drawn), the cytotoxicity at 70.5 h came out at 20.5%.

For `Cc1nnsc1C(=O)N1CC[C@H](c2ccccc2)[C@@H]2[C@H]1CCCCN2C`, the cytotoxicity at 70.5 h was -3.09%.

`Cc1ccc(N2C[C@H]3CCC[C@@]3(COc3cccnc3)C2)nn1`: the cytotoxicity at 70.5 h was -8.26%.

Regarding `CC(=O)N1CCCC2(CCN(Cc3ccc(Cl)c(C(F)(F)F)c3)C2)C1` (stereo not drawn), the cytotoxicity at 70.5 h was -5.69%.

On to `Cc1ccc(OCC2CCCN(C(=O)CN3CCOCC3)C2)cc1` (stereo not drawn), for which the cytotoxicity at 70.5 h worked out at 2.89%.

As for `CC(C)c1ocnc1C(=O)Nc1cccc(Cn2ccccc2=O)c1`, the cytotoxicity at 70.5 h stood at 19%.

On to `COc1c(CNCCNC(=O)c2ccccc2)c(C)nn1C`, for which the cytotoxicity at 70.5 h was -1.1%.

As to `CC1(C)CC(N(Cc2cccnc2)Cc2cccnc2)CC(C)(C)N1`, the cytotoxicity at 70.5 h is -1.63%.

Regarding `CN1CCOC(CN(C(=O)CCCn2cccn2)c2nccs2)C1` (stereo not drawn), the cytotoxicity at 70.5 h is -1.25%.

Regarding `CCOc1cc([C@H]2N[C@@H](c3nc(C)cs3)Cc3ccsc32)ccc1OC`, the cytotoxicity at 70.5 h was -6.01%.

As for `CN(C)c1nc(N)nc(CN2CCCC(c3ccccc3)CC2)n1` (stereo not drawn), the cytotoxicity at 70.5 h was -3.13%.

Turning to `CS(=O)(=O)NCc1cccc(COC2CCCCC2)c1`, the cytotoxicity at 70.5 h was -3.13%.

As to `Fc1cccc(OC2CCN(CCn3cc4ccccc4n3)CC2)c1`, the cytotoxicity at 70.5 h is -21.6%.

With `COc1ccc(CN2CCCC2)cc1Oc1ccc(NC(C)=O)cc1`, the cytotoxicity at 70.5 h is -3.35%.

For the compound `CCCC(=O)NCCc1cc(N2CCN(C(C)=O)CC2)nc(C2CC2)n1`, the cytotoxicity at 70.5 h was -6.31%.

In the case of `Cc1nn(C)c(C)c1-c1c(-c2ccccc2)ncn1[C@H](CO)C(=O)O`, the cytotoxicity at 70.5 h was -4.59%.

For the compound `CN1CCCCC1CCC(=O)NCCCn1nccc1C1CC1` (stereo not drawn), the cytotoxicity at 70.5 h is -11.4%.

Consider `COc1ccccc1NC(=O)NC(C)c1nc[nH]n1` (stereo not drawn), for which the cytotoxicity at 70.5 h was 0.321%.

For the compound `COc1ccccc1N1CCN(C(=O)CCn2ccc(C)n2)CC1`, the cytotoxicity at 70.5 h was found to be 23.2%.

As for `O=C(Nc1nccs1)NC1CCN(CC2CCCC2)CC1`, the cytotoxicity at 70.5 h was -13.1%.

On to `CN1CCCC1c1nnc2n1CCN(S(=O)(=O)c1ccccc1Cl)CC2` (stereo not drawn), for which the cytotoxicity at 70.5 h is -8.1%.

`CC(C)CS(=O)(=O)N1C[C@H]2C[C@H](C(=O)N(C)C)[C@@H](C1)O2`: the cytotoxicity at 70.5 h is -1.1%.

Take `Cc1nc(C)c(CC(=O)N2CCCN(CC3CC3)C(C(C)C)C2)c(=O)[nH]1` (stereo not drawn): the cytotoxicity at 70.5 h turned out to be 0.531%.

As for `CN(Cc1cn[nH]c1-c1ccc(F)cc1)C(=O)CCC1CC1`, the cytotoxicity at 70.5 h is -13.8%.

For `O=C(NCC1(c2ccc(F)cc2)CC1)N1CCC2(CCOC2)C1` (stereo not drawn), the cytotoxicity at 70.5 h amounted to 13.9%.

Consider `Cn1cc(CC2CCN(C(=O)NCCCc3ccc(O)cc3)C2)cn1` (stereo not drawn), for which the cytotoxicity at 70.5 h was -9.85%.

On to `COCc1cn(C2CCN(C(=O)Cc3ccsc3)CC2)nn1`, for which the cytotoxicity at 70.5 h is -9.06%.

In the case of `Cc1cccc(OCCC(=O)N(C)CCNS(C)(=O)=O)c1C`, the cytotoxicity at 70.5 h was found to be 0.181%.

For `CC(C)CS(=O)(=O)N1C[C@H]2C[C@H](C(=O)NCc3ccccc3)[C@@H](C1)O2`, the cytotoxicity at 70.5 h was -7.71%.

On to `NCC1Cc2cc(-c3nccc(N4CCC(O)CC4)n3)cc(Cl)c2O1` (stereo not drawn), for which the cytotoxicity at 70.5 h was determined as 5.41%.

Turning to `CCOCC1CN(c2ccncn2)Cc2cnn(CC)c21` (stereo not drawn), the cytotoxicity at 70.5 h is -8.6%.

`CCC(C)(C)NC(=O)Cn1cc(C(N)=O)c(-c2ccccc2)n1`: the cytotoxicity at 70.5 h is -7.28%.

`c1coc(CN2C[C@@H]3CN(Cc4ccoc4)CCO[C@@H]3C2)c1`: the cytotoxicity at 70.5 h is -1.5%.

Consider `CN(C)C(=O)CN1CCCC(CCCc2ccccn2)(C(N)=O)C1` (stereo not drawn), for which the cytotoxicity at 70.5 h came to 10.1%.

Regarding `CCOc1cccc(CNc2cccc(C(=O)OC)c2)c1O`, the cytotoxicity at 70.5 h was -19.3%.

On to `CC1(C)Cc2nc(C(C)(C)C)ncc2C(NC(=O)CN)C1` (stereo not drawn), for which the cytotoxicity at 70.5 h was -10.1%.

Consider `Cc1cc2cccc(NC(=O)N3CC[C@@H]4CC[C@H](C3)N4C)c2o1`, for which the cytotoxicity at 70.5 h is -5.41%.

Take `Cc1cc(C)c2nc(C)c(C(=O)N3CCC(N4CCCC4)CC3)cc2c1`: the cytotoxicity at 70.5 h is -0.523%.

`CN1C(=O)CCCC12CCCN(C(=O)c1cccc(C(F)(F)F)c1)C2` (stereo not drawn): the cytotoxicity at 70.5 h is -6.35%.

Regarding `COc1c(C)cnc(CN(C)C(=O)c2ccccc2O)c1C`, the cytotoxicity at 70.5 h turned out to be 0.1%.

As to `N#Cc1cccnc1NCCNC(=O)N1CCSCC1`, the cytotoxicity at 70.5 h was found to be 9.49%.

For `O=C(NC1CCCc2nc(N3CCOCC3)ncc21)C1CCCCC1` (stereo not drawn), the cytotoxicity at 70.5 h was 13.8%.

Take `COc1ccccc1CCN1CCCC(CN(C)Cc2c[nH]c(C)n2)C1` (stereo not drawn): the cytotoxicity at 70.5 h came out at 14.9%.

For the compound `CN1CCC(Cc2cc(Nc3ccccn3)ncn2)CC1`, the cytotoxicity at 70.5 h is 10.1%.

For `Cc1ccc(C(=O)N(C)Cc2nccn2CC(F)(F)F)cn1`, the cytotoxicity at 70.5 h is -13.5%.

Consider `CC(=O)NCC1CCN(C(=O)c2ccc(Sc3ccccn3)cc2)CC1`, for which the cytotoxicity at 70.5 h was -16.7%.

With `CN(C)Cc1nn(C)c2c1CCN(C(=O)CC1CC1)C2`, the cytotoxicity at 70.5 h amounted to 39.3%.

As for `OCCOc1ccc(NCc2cccnc2)cn1`, the cytotoxicity at 70.5 h amounted to 24.6%.

Take `O=C(Cn1ccc2cc(Br)ccc21)NCc1ccc(C(=O)O)cc1`: the cytotoxicity at 70.5 h is -27.5%.

Regarding `O=C(NCCn1cccc1)C1CCC(=O)N(C2CCCC2)C1` (stereo not drawn), the cytotoxicity at 70.5 h was -8.05%.

For `COCCCn1cnnc1CNc1cc(C)nc2ccnn12`, the cytotoxicity at 70.5 h was -4.02%.

For `Clc1ccc(CN2CCCCC2Cn2cncn2)c2ncccc12` (stereo not drawn), the cytotoxicity at 70.5 h was -0.976%.

As to `CCCN(CCC)c1ncc(S(=O)(=O)c2ccc(C)cc2)c(N)n1`, the cytotoxicity at 70.5 h was -19.9%.

For the compound `Cc1ncccc1CNC(CCO)C1CCCCC1` (stereo not drawn), the cytotoxicity at 70.5 h amounted to 1.16%.

As for `Cc1ccc(C(=O)N2CCN3C[C@H](Oc4cccc(F)c4)C[C@H]3C2)cn1`, the cytotoxicity at 70.5 h is -2.95%.

On to `COCCN1C[C@H]2CC[C@@H]1CN(C(=O)CCc1c(C)nn(C)c1C)C2`, for which the cytotoxicity at 70.5 h was -3.68%.

`Cc1cc(C)n(CC2CCCN2CCC(=O)Nc2cc(C)on2)n1` (stereo not drawn): the cytotoxicity at 70.5 h is -7.1%.

Regarding `Cc1ccc(C(=O)N2CCc3ccc(=O)n(CCN(C)C)c3CC2)o1`, the cytotoxicity at 70.5 h was -4.04%.

For the compound `CC(C)(Oc1ccc2c(c1)CCCC2=O)C(=O)NCc1ccco1`, the cytotoxicity at 70.5 h was -2.8%.

In the case of `Cc1nc2c(C(=O)O)cccc2n1-c1ccc(C(=O)N2CCCC2)o1`, the cytotoxicity at 70.5 h is 7.08%.

For the compound `Cc1cc(O)ccc1-c1cc(-c2cnn(C)c2C2CC2)c(C#N)c(N)n1`, the cytotoxicity at 70.5 h amounted to 19.9%.

As to `O=C(Nc1cc(-c2ccncc2)no1)C1CCC1`, the cytotoxicity at 70.5 h is -10.3%.
